In patent US9676789B2, “Aminated derivative of homoharringtonine, preparation method therefor, and application thereof” (HANGZHOU BENSHENG PHARMACEUTICAL CO., LTD., priority 2011, dated 2017):
≈ marks a conversion by molar mass, not a printed value.

Assays:
[1] = tested on: H9 (acute lymphoblastic leukemia, ALL); test: MTT leukemia cell growth inhibition, 72 h; type: cell-based, human; conditions: Homo sapiens, H9, 72 h
How it was run: (§1)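 Readout: MTT viability after 72 h exposure to graded compound concentrations, normalised to untreated cells (100%). 6000 cells/well in 1640 medium + 10% FBS, 37 °C, 5% CO2.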

[2] = tested on: Jurkat (acute lymphoblastic leukemia, ALL); test: MTT leukemia cell growth inhibition, 72 h; type: cell-based, human; conditions: Homo sapiens
How it was run: as §1

[3] = tested on: K562/adr (drug-resistant, chronic myeloid leukemia, CML); test: MTT leukemia cell growth inhibition, 72 h; type: cell-based, human; conditions: Homo sapiens, K562/Adr
How it was run: as §1

[4] = tested on: Kasumi-1 (acute myeloid leukemia M2 type, AML-M2); test: MTT leukemia cell growth inhibition, 72 h; type: cell-based, human; conditions: Homo sapiens, Kasumi-1, 72 h
How it was run: as §1

[5] = tested on: NB4 (acute promyelocytic leukemia, AML); test: MTT leukemia cell growth inhibition, 72 h; type: cell-based, human; conditions: Homo sapiens, NB4, 72 h
How it was run: as §1

[6] = tested on: RPMI8226 (multiple myeloma); test: MTT multiple myeloma cell growth inhibition, 72 h; type: cell-based, human
How it was run: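 Viability determined by MTT after 72 h of compound exposure at 37° C under 5% CO2. Myeloma RPMI8226 cells were seeded at 6000 per well in 1640 medium containing 10% fetal bovine serum.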

[7] = tested on: A549 (human lung cancer); test: MTT solid tumor cell growth inhibition, 72 h; type: cell-based; conditions: Homo sapiens, A549, 72 h
How it was run: (§2)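 MTT read-out after 72 h drug exposure; viability % relative to untreated cells set at 100%. Seeding 4000 cells/well, DMEM high glucose + 10% FBS, 24 h pre-incubation, 37° C, 5% CO2.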

[8] = tested on: Becap37 (human breast cancer cell); test: MTT solid tumor cell growth inhibition, 72 h; type: cell-based; conditions: Homo sapiens, Becap37, 72 h
How it was run: as §2

[9] = tested on: Hela (human cervical cancer cell); test: MTT solid tumor cell growth inhibition, 72 h; type: cell-based; conditions: Homo sapiens, HeLa
How it was run: as §2

[10] = tested on: Hep-2 (human hepatocellular carcinoma); test: MTT solid tumor cell growth inhibition, 72 h; type: cell-based; conditions: Homo sapiens, HEp-2, Hep2, 72 h
How it was run: as §2

[11] = tested on: Huh7 (human liver cancer cell); test: MTT solid tumor cell growth inhibition, 72 h; type: cell-based; conditions: Homo sapiens, Huh-7, Huh7, 72 h
How it was run: as §2

[12] = tested on: MGC 803 (human gastric cancer cell); test: MTT solid tumor cell growth inhibition, 72 h; type: cell-based; conditions: Homo sapiens, MGC 803, 72 h
How it was run: as §2

[13] = tested on: RKO (human colon adenocarcinoma cell); test: MTT solid tumor cell growth inhibition, 72 h; type: cell-based; conditions: Homo sapiens
How it was run: as §2

[14] = tested on: CNE (nasopharyngeal carcinoma cell); test: MTT solid tumor cell growth inhibition, 72 h; type: cell-based, human; conditions: Homo sapiens
How it was run: as §2

[15] = tested on: CaES-17 (esophageal cancer cell); test: MTT solid tumor cell growth inhibition, 72 h; type: cell-based, human; conditions: Homo sapiens, CaEs17, CaES-17, 72 h
How it was run: as §2

[16] = tested on: MG63 (osteosarcoma); test: MTT solid tumor cell growth inhibition, 72 h; type: cell-based, human; conditions: Homo sapiens, MG 63, 72 h
How it was run: as §2

[17] = tested on: PANC-1 (pancreatic cancer); test: MTT solid tumor cell growth inhibition, 72 h; type: cell-based, human; conditions: Homo sapiens, PANC-1, 72 h
How it was run: as §2

[18] = tested on: PC-3 (prostate cancer); test: MTT solid tumor cell growth inhibition, 72 h; type: cell-based, human; conditions: Homo sapiens, PC-3, 72 h
How it was run: as §2

[19] = tested on: SK-OV-3 (ovarian cancer cell); test: MTT solid tumor cell growth inhibition, 72 h; type: cell-based, human; conditions: Homo sapiens, SK-OV-3, 72 h
How it was run: as §2

[20] = tested on: U87 MG (malignant glioma cell); test: MTT solid tumor cell growth inhibition, 72 h; type: cell-based, human; conditions: Homo sapiens, U-87 MG
How it was run: as §2

[21] = tested on: K562/adr, NB4, Kasumi-1 and H9; test: Anti-leukemia activity, summary over cell lines; type: cell-based, human; conditions: result in words, summary of Table 1
Description: Leukemia cell lines: K562/adr (drug-resistant, chronic myeloid leukemia, CML), NB4 (acute promyelocytic leukemia, AML), Kasumi-1 (acute myeloid leukemia M2 type, AML-M2), Jurkat (acute lymphoblastic leukemia, ALL), all of which are donated by Cancer Research Institute of Zhejiang University, China; and H9 (acute lymphoblastic leukemia, ALL), which is purchased from China Center for Type Culture Collection.
Obtaining 6000 well-growing leukemia cells and inoculating them into wells of a 96-well cell culture plate. The culture medium is the 1640 cell culture medium containing 10% fetal bovine serum. After adding the homoharringtonine derivatives of different concentrations and mixing uniformly, placing the plate in a carbon dioxide cell incubator (5% CO2) at 37° C. and incubating for 72 hours. Then the viable cell concentration is determined by the MTT method. In this experiment, the cell viability in control group (not treated with any compound) is set as 100%.

[22] = tested on: A549, PANC-1, Becap37, MG63, Huh7, RKO, Hela, CaES-17, CNE, Hep-2, PC-3 and SK-OV-3; test: Anti-human solid tumor effect, summary over cell lines; type: cell-based; conditions: result in words, summary of Table 2
Method: Human solid tumor cell lines: Hep-2 ([…]), A549 (human lung cancer), CaES-17 (esophageal cancer cell), PC-3 (prostate cancer), CNE (nasopharyngeal carcinoma cell), and SK-OV-3 (ovarian cancer cell), all of which are purchased from China Center For Type Culture Collection; RKO (human colon adenocarcinoma cell), MGC 803 (human gastric cancer cell), MG63 (osteosarcoma) and U87 MG (malignant glioma cell), all of which are purchased from Fuxiang Bio-tech Co. Ltd., Shanghai, China; PANC-1 (pancreatic cancer), Huh7 (human liver cancer cell), Becap37 (human breast cancer cell), and Hela (human cervical cancer cell), all of which are donated by Cancer Research Institute of Zhejiang University, China.
Obtaining 4000 well-growing human solid tumor cells and inoculating them into wells of a 96-well cell culture plate. The culture medium is DMEM High Glucose cell culture medium containing 10% fetal bovine serum. The plate is placed in a carbon dioxide cell incubator (5% CO2) at 37° C. and incubating for 24 hours. After adding the homoharringtonine derivatives of different concentration and mixing uniformly, the plate is placed in a carbon dioxide cell incubator (5% CO2) at 37° C. and incubating for 72 hours. Then the viable cell concentration is determined by the MTT method and the cell viability (%) after drug treatment is calculated. In this experiment, the cell viability of control group (not treated with any compound) is set as 100%.

## COC1=C[C@]23CCCN2CCc2cc4c(cc2[C@@H]3[C@@H]1OC(=O)[C@@](O)(CCCC(C)(C)O)CC(=O)NC1CCCCC1)OCO4 [BS-HH-042, O-3-[(2R)-2,6-dihydroxy-2-(2′-cyclohexaneamino-2′-oxoethyl)-6-methylheptanoyl]cephalotaxine]
[1]; read-out: IC50
  IC50: 0.04 µg/mL (≈ 0.0653 µM)
[1]; read-out: IC90
  IC90: 0.1 µg/mL (≈ 0.163 µM)
[2]; read-out: IC50
  IC50: 0.037 µg/mL (≈ 0.0604 µM)
[2]; read-out: IC90
  IC90: 16 µg/mL (≈ 26.1 µM)
[3]; read-out: IC50
  IC50: 3.2 µg/mL (≈ 5.22 µM)
[3]; read-out: IC90
  IC90: 16 µg/mL (≈ 26.1 µM)
[4]; read-out: IC50
  IC50: 0.048 µg/mL (≈ 0.0783 µM)
[4]; read-out: IC90
  IC90: 0.21 µg/mL (≈ 0.343 µM)
[5]; read-out: IC50
  IC50: 0.06 µg/mL (≈ 0.0979 µM)
[5]; read-out: IC90
  IC90: 0.13 µg/mL (≈ 0.212 µM)
[6]; Homo sapiens, RPMI-8226, RPMI8226, 72 h, read-out: IC50
  IC50: 0.042 µg/mL (≈ 0.0685 µM)
[6]; Homo sapiens, RPMI-8226, RPMI8226, 72 h, read-out: IC90
  IC90: 0.24 µg/mL (≈ 0.392 µM)
[6]; result in words, summary of Table 2
  anti-RPMI8226 (multiple myeloma) effect: strong
[7]; read-out: IC50
  IC50: 0.45 µg/mL (≈ 0.734 µM)
[7]; read-out: IC90
  IC90: > 16 µg/mL
[8]; read-out: IC50
  IC50: 0.17 µg/mL (≈ 0.277 µM)
[8]; read-out: IC90
  IC90: > 16 µg/mL
[9]; read-out: IC50
  IC50: 0.45 µg/mL (≈ 0.734 µM)
[9]; read-out: IC90
  IC90: > 16 µg/mL
[10]; read-out: IC50
  IC50: 0.97 µg/mL (≈ 1.58 µM)
[10]; read-out: IC90
  IC90: > 16 µg/mL
[11]; read-out: IC50
  IC50: 0.044 µg/mL (≈ 0.0718 µM)
[11]; read-out: IC90
  IC90: > 16 µg/mL
[12]; read-out: IC50
  IC50: 0.096 µg/mL (≈ 0.157 µM)
[12]; read-out: IC90
  IC90: 0.25 µg/mL (≈ 0.408 µM)
[13]; read-out: IC50
  IC50: 0.029 µg/mL (≈ 0.0473 µM)
[13]; read-out: IC90
  IC90: 0.23 µg/mL (≈ 0.375 µM)
[14]; read-out: IC50
  IC50: 0.13 µg/mL (≈ 0.212 µM)
[14]; read-out: IC90
  IC90: > 16 µg/mL
[15]; read-out: IC50
  IC50: 0.29 µg/mL (≈ 0.473 µM)
[15]; read-out: IC90
  IC90: 16 µg/mL (≈ 26.1 µM)
[16]; read-out: IC50
  IC50: 0.12 µg/mL (≈ 0.196 µM)
[16]; read-out: IC90
  IC90: 16 µg/mL (≈ 26.1 µM)
[17]; read-out: IC50
  IC50: 0.13 µg/mL (≈ 0.212 µM)
[17]; read-out: IC90
  IC90: > 16 µg/mL
[18]; read-out: IC50
  IC50: 0.31 µg/mL (≈ 0.506 µM)
[18]; read-out: IC90
  IC90: > 16 µg/mL
[19]; read-out: IC50
  IC50: 0.21 µg/mL (≈ 0.343 µM)
[19]; read-out: IC90
  IC90: > 16 µg/mL
[20]; read-out: IC50
  IC50: 0.12 µg/mL (≈ 0.196 µM)
[20]; read-out: IC90
  IC90: 13 µg/mL (≈ 21.3 µM)
[21]
  anti-K562/adr, anti-NB4, anti-Kasumi-1 and anti-H9 activity: strong
[22]
  anti-A549, anti-PANC-1, anti-Becap37, anti-MG63, anti-Huh7, anti-RKO, anti-Hela, anti-CaES-17, anti-CNE, anti-Hep-2, anti-PC-3 and anti-SK-OV-3 effect: strong
